Columns and labels:
[1] = target: T1, HGFR (His6-HGFR cytoplasmic domain) (Homo sapiens, UniProt P08581); assay: Inhibitory activity against HGFR tyrosine kinase activity (HTRF); assay type: biochemical; conditions: biotin-poly(GT), ATP, 30° C. 10 min, read-out: IC50 (concentration necessary to inhibit HGFR kinase activity by 50%)
T1 construct: made in house; host or cells: Spodoptera frugiperda Sf9 insect cells (baculovirus, pFastBac-HT)
Method in brief: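 Baculovirus/Sf9-expressed N-terminal His6-tagged HGFR cytoplasmic domain (from Lys974), Ni-NTA purified, phosphorylated biotin-poly(GT) in Hepes pH 7.4 with MgCl2/MnCl2. ATP added as 4 μM solution; 10 min at 30° C., stopped with EDTA. Phosphotyrosine product detected by HTRF.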

[2] = test system: Human pancreatic cancer cells (SUIT-2); assay: Inhibitory activity against migration of human pancreatic cancer cells (SUIT-2); assay type: cell-based; conditions: SUIT-2, Transwell, HGF stimulation, 24 hrs, read-out: IC50 (concentration necessary to inhibit the cell migration activity by 50%)
Protocol: Human pancreatic cancer cells (SUIT-2) were suspended in a 1% FBS-containing RPMI1640 medium (purchased from Sigma) to prepare a cell suspension (8×10^5 cells/ml). To the lower compartment of Transwell (purchased from COSTAR, Production No. 3422) was added 600 μl of a 1% FBS-containing RPMI1640 medium. To the upper compartment were added 50 μl of the above cell suspension and 25 μl of the test substance dissolved in dimethyl sulfoxide (diluted with the 1% FBS-containing RPMI1640 medium), followed by culturing in a 5% CO2 incubator (37° C.) for 1 hr. After the culture, to the upper compartment of each Transwell was added 25 μl of human recombinant hepatocyte growth factor (HGF, purchased from Wako Pure Chemical Industry, Production No. 22949) diluted to 280 ng/ml with a 1% FBS-containing RPMI1640 medium, followed by culturing in a 5% CO2 incubator (37° C.) for 24 hrs. The cells adhering to the lower compartment of each well were counted in five fields by a phase contrast microscope (200×) to calculated an average adhering cell number. While defining the average adhering cell number of a well supplied with […] and no test substance as 100% cell migration activity and the average adhering cell number of a well supplied with no HGFR and no test substance as 0% cell migration activity, the cell migration activity percent (%) was calculated for each well. The concentration of the test substance was varied at several levels to calculate the cell migration activity percent (%) for respective cases, and to calculate the concentration of the test substance necessary to inhibit the cell migration activity by 50% (IC50).

T1 sequence (P08581 956-1390 limits assumed): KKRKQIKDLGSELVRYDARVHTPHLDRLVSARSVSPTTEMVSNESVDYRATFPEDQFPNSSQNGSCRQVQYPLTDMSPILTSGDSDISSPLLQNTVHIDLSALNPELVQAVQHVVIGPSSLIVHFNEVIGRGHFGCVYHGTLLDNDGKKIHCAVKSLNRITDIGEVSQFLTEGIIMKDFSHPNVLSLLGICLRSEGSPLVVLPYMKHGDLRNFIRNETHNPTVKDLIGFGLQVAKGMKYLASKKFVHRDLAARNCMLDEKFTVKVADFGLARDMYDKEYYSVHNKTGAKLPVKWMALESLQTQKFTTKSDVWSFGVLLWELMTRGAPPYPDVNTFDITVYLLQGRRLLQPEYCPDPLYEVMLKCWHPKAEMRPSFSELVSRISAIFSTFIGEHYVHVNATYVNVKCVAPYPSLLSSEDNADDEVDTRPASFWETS

| Compound | IC50 [1] [nM] | IC50 [2] [nM] |
| --- | --- | --- |
| O=C(Cc1ccc(F)cc1)NC(=S)Nc1ccc(Oc2cc(NC(=O)N3CCCC3)ncn2)c(F)c1 [Example 3, Pyrrolidine-1-carboxylic acid [6-(2-fluoro-4-{3-[2-(4-fluorophenyl)acetyl]thioureido}phenoxy)pyrimidin-4-yl]amide] | 71 | 50 |
| O=C(Cc1ccc(F)cc1)NC(=S)Nc1ccc(Oc2ccnc(NC(=O)N3CCCC3)c2)cc1 [Example 9, Pyrrolidine-1-carboxylic acid [4-(4-{3-[2-(4-fluorophenyl)acetyl]thioureido}phenoxy)pyridin-2-yl]amide] | 53 |  |
| O=C(Cc1ccccc1)NC(=S)Nc1ccc(Oc2ccnc(NC(=O)N3CCOCC3)c2)c(Cl)c1 [Example 11, 4-{2-Chloro-4-[3-(2-phenylacetyl)thioureido]phenoxy}-2-[(morpholin-4-yl)carbonylamino]pyridine] | 88 |  |
| O=C(Cc1ccc(F)cc1)NC(=S)Nc1ccc(Oc2ccnc(NC(=O)N3CCCC3)c2)c(F)c1 [Example 13, 4-(2-Fluoro-4-{3-[2-(4-fluorophenyl)acetyl]thioureido}phenoxy)-2-[(pyrrolidin-1-yl)carbonylamino]pyridine] | 110 | 3.2 |
| O=C(Cc1ccccc1)NC(=S)Nc1ccc(Oc2ccnc(NC(=O)N3CCC(O)CC3)c2)c(F)c1 [Example 15, 4-{2-Fluoro-4-[3-(2-phenylacetyl)thioureido]phenoxy}-2-[(4-hydroxypiperidin-1-yl)carbonylamino]pyridine] | < 30 |  |
| CN(C)C(=O)Nc1cc(Oc2ccc(NC(=S)NC(=O)CC3CC4CCC3C4)cc2F)ccn1 (stereo not drawn) [Example 17, 2-[(Dimethylamino)carbonylamino]-4-{2-fluoro-4-[3-(2-norbornaneacetylthio)ureido]phenoxy}pyridine] | 64 |  |
| CCN(CC)CCCN(C)C(=O)Nc1cc(Oc2ccc(NC(=S)NC(=O)Cc3ccc(F)cc3)cc2F)ccn1 [Example 22, 1-(3-Diethylaminopropyl)-3-[4-(2-fluoro-4-{3-[2-(4-fluorophenyl)acetyl]thioureido}phenoxy)pyridin-2-yl]-1-methylurea] | 110 |  |
| Cc1cc(NC(=S)NC(=O)Cc2ccc(F)cc2)ccc1Oc1ccnc(NC(=O)N2CCOCC2)c1 [Example 24, Morpholine-4-carboxylic acid (4-{2-methyl-4-[3-(4-fluorophenyl)acetylthioureido]phenoxy}pyridin-2-yl)amide] | 54 |  |
| CN1CCC(N(C)C(=O)Nc2cc(Oc3ccc(NC(=S)NC(=O)Cc4ccccc4)cc3F)ccn2)CC1 [Example 28, 3-{4-[2-Fluoro-4-(3-phenylacetylthioureido)phenoxy]pyridin-2-yl}-1-methyl-1-(1-methylpiperidin-4-yl)urea] | 75 |  |
| O=C(Cc1ccccc1)NC(=O)Nc1ccc(Oc2ccnc(NC(=O)N3CCCC3)c2)c(F)c1 [Example 43, 4-{2-Fluoro-4-[3-(2-phenylacetyl)ureido]phenoxy}-2-[(pyrrolidin-1-yl)carbonylamino]pyridine] | 83 |  |
| CN(C)C(=O)Nc1cc(Oc2ccc(NC(=O)NC(=O)Cc3ccccc3)cc2F)ccn1 [Example 44, 2-[(Dimethylamino)carbonylamino]-4-{2-fluoro-4-[3-(2-phenylacetyl)ureido]phenoxy}pyridine] | 45 |  |
| O=C(Cc1ccccc1)NC(=O)Nc1ccc(Oc2ccnc(NC(=O)N3CCC(N4CCCC4)CC3)c2)c(F)c1 [Example 45, 4-{2-Fluoro-4-[3-(2-phenylacetyl)ureido]phenoxy}-2-{[4-(pyrrolidin-1-yl)piperidin-1-yl]carbonylamino}pyridine] | 91 |  |
| O=C(Cc1ccccc1)NC(=O)Nc1ccc(Oc2ccnc(NC(=O)N3CCOCC3)c2)c(F)c1 [Example 48, Morpholine-4-carboxylic acid {4-[2-fluoro-4-(3-phenylacetylureido)phenoxy]pyridin-2-yl}amide] | 56 |  |
| CN1CCN(C(=O)Nc2cc(Oc3ccc(NC(=O)NC(=O)Cc4ccccc4)cc3F)ccn2)CC1 [Example 50, 4-Methylpiperazine-1-carboxylic acid {4-[2-fluoro-4-(3-phenylacetylureido)phenoxy]pyridin-2-yl}amide] | 190 |  |
| CN1CCC(N(C)C(=O)Nc2cc(Oc3ccc(NC(=O)NC(=O)Cc4ccccc4)cc3F)ccn2)CC1 [Example 52, 3-{4-[2-Fluoro-4-(3-phenylacetylureido)phenoxy]pyridin-2-yl]-1-methyl-1-(1-methylpiperidin-4-yl)urea] | 73 |  |
| O=C(CC(=O)Nc1ccc(Oc2ccnc(NC(=O)N3CCCC3)c2)c(F)c1)Nc1ccc(F)cc1 [Example 56, N-(4-Fluorophenyl)-N′-(3-fluoro-4-{2-[(pyrrolidine-1-carbonyl)amino]pyridin-4-yloxy}phenyl)malonamide] | 56 | 38 |
| O=C(CC(=O)Nc1ccc(Oc2ccnc(NC(=O)C3CC3)c2)cc1F)Nc1ccc(F)cc1 [Example 77, N-(4-Fluorophenyl)-N′-{4-[2-(cyclopropanecarbonylamino)pyridin-4-yloxy]-2-fluorophenyl}malonamide] | 13 |  |
| O=C(CC(=O)Nc1ccc(Oc2ccnc(NC(=O)N3CCC(N4CCCC4)CC3)c2)cc1F)Nc1ccc(F)cc1 [Example 82, N-(4-Fluorophenyl)-N′-[2-fluoro-4-(2-{[4-(pyrrolidin-1-yl)piperidine-1-carbonyl]amino}pyridin-4-yloxy)phenyl]malonamide] | 66 |  |
| Cc1cc(Oc2ccnc(NC(=O)N3CCC(N4CCCC4)CC3)c2)ccc1NC(=O)CC(=O)Nc1ccc(F)cc1 [Example 85, N-(4-Fluorophenyl)-N′-[2-methyl-4-(2-{[(4-pyrrolidin-1-yl)piperidine-1-carbonyl]amino}pyridin-4-yloxy)phenyl]malonamide] | 96 |  |
| CN1CCC(N(C)C(=O)Nc2cc(Oc3ccc(NC(=O)CC(=O)Nc4ccc(F)cc4)cc3F)ccn2)CC1 [Example 89, N-(3-Fluoro-4-{2-[3-methyl-3-(1-methylpiperidin-4-yl)ureido]pyridin-4-yloxy}phenyl)-N′-(4-fluorophenyl)malonamide] | 38 |  |
| CN1CCCN(C(=O)Nc2cc(Oc3ccc(NC(=O)CC(=O)Nc4ccc(F)cc4)c(F)c3)ccn2)CC1 [Example 92, N-(2-Fluoro-4-{2-[(4-methyl-[1,4]diazepane-1-carbonyl)amino]pyridin-4-yloxy}phenyl)-N′-(4-fluorophenyl)malonamide] | 78 |  |
